Assay: Diffusion coefficient (Dcoeff) of FtsA from FRAP
Details: for Diffusion Coefficient, mean: Fig. 3j; for Dcoeff: Fig. S3i/S3j
Source text: We could also use the data from these bleaching experiments to quantify the membrane-binding kinetics and diffusion of membrane-bound proteins by analysing the change of the fluorescence profile during recovery.
Equimolar concentrations of Cy3- and Cy5-labelled FtsA, supplemented with 20% unlabelled FtsA were used to study FRET and FRAP. Five pre-bleach frames were acquired, followed by acceptor photobleaching of a rectangular ROI with 40% 641 nm laser power and a dwell size of 1 µs/pixel, 75% overlapping lines. The recovery of the signal or the increase in donor intensity were measured with either two frames or one frame per second.
Bleaching the acceptor dye leads to an increase in the donor intensity, which can be used to quantify the Foerster Resonance energy transfer (FRET)[48]. FRET efficiency was quantified with E%=Ipost/Ipost+Ipre⋅100 , where Ipost is the intensity of the […] and Ipre is the […]. […] To extract the contribution of both processes, we adjusted a routine recently published by Gerganova et al.[33]. In short, the code provides the contribution of both modes of recovery by analysing the shape of the fluorescence recovery profile. […] Contribution of diffusion leads to a change of the slope of the outer borders of the bleached region (S4h right). Thus, by measuring the change of the slope of the border recovery, diffusion and simple on/off binding can be distinguished. We developed “FRAPdiff”, a graphical user interface, which uses the original fit routine by David Rutkowski. It can be used directly on.tiff movies with annotated bleach regions as ImageJ ROIs. In addition, we added optional bleach correction, user selectable projection axis (x or y), and optional mirroring of the recovery profiles, if bleaching was not symmetric. The original fit routine for estimating the recovery and diffusion dynamics can be found at https://github.com/davidmrutkowski/1DReflectingDiffusion. FRAPdiff is available at 10.5281/zenodo.6400639[49] under the GPLv3 open-source license.

FtsA WT: wild-type E. coli actin-homologue FtsA, membrane anchor of FtsZ
Diffusion Coefficient (0.2µM, + FtsZ, replicate Exp.4): 4.01E-02 | Diffusion Coefficient (0.2µM, + FtsZ, replicate Exp.5): 7.03E-05 | Diffusion Coefficient (0.2µM, + FtsZ, replicate Exp.6): 2.65E-03 | Diffusion Coefficient (0.2µM, + FtsZ, replicate Exp.7): 9.70E-04 | Diffusion Coefficient, mean (0.4 µM FtsA + N): 1.74E-03 µm2/s | Diffusion Coefficient, mean (0.4 µM FtsA + Z&N): 1.31E-03 µm2/s | Diffusion Coefficient, mean (0.4 µM FtsA + Z): 9.28E-04 µm2/s | Diffusion Coefficient (0.4µM FtsA alone, Mean, n=18 (WT), 9 (R286W)): 0.0094 | Diffusion Coefficient, mean (0.4 µM FtsA alone): 9.38E-03 µm2/s | Diffusion Coefficient (0.4µM FtsA alone, replicate Exp.1): 1.66E-03 | Diffusion Coefficient (0.4µM FtsA alone, replicate Exp.10): 2.61E-04 | Diffusion Coefficient (0.4µM FtsA alone, replicate Exp.11): 2.61E-03 | Diffusion Coefficient (0.4µM FtsA alone, replicate Exp.12): 1.80E-02 | Diffusion Coefficient (0.4µM FtsA alone, replicate Exp.13): 3.92E-03 | Diffusion Coefficient (0.4µM FtsA alone, replicate Exp.14): 4.91E-02 | Diffusion Coefficient (0.4µM FtsA alone, replicate Exp.15): 1.40E-02 | Diffusion Coefficient (0.4µM FtsA alone, replicate Exp.16): 4.71E-05 | Diffusion Coefficient (0.4µM FtsA alone, replicate Exp.17): 6.43E-03 | Diffusion Coefficient (0.4µM FtsA alone, replicate Exp.18): 3.05E-04 | Diffusion Coefficient (0.4µM FtsA alone, replicate Exp.2): 7.21E-03 | Diffusion Coefficient (0.4µM FtsA alone, replicate Exp.3): 3.35E-02 | Diffusion Coefficient (0.4µM FtsA alone, replicate Exp.4): 6.07E-07 | Diffusion Coefficient (0.4µM FtsA alone, replicate Exp.5): 4.86E-04 | Diffusion Coefficient (0.4µM FtsA alone, replicate Exp.6): 1.29E-02 | Diffusion Coefficient (0.4µM FtsA alone, replicate Exp.7): 1.54E-02 | Diffusion Coefficient (0.4µM FtsA alone, replicate Exp.8): 3.15E-04 | Diffusion Coefficient (0.4µM FtsA alone, replicate Exp.9): 2.76E-03 | Diffusion Coefficient (0.4 µM FtsA, FRAP, p-value […] 10^−6): 0.01 ± 0.01 µm^2/s | Diffusion Coefficient (0.4µM, + FtsN&Z, Mean, n=6 (WT), 9 (R286W)): 0.0013 | Diffusion Coefficient (0.4µM, + FtsN&Z, replicate Exp.1): 7.97E-04 | Diffusion Coefficient (0.4µM, + FtsN&Z, replicate Exp.2): 2.09E-03 | Diffusion Coefficient (0.4µM, + FtsN&Z, replicate Exp.3): 9.40E-04 | Diffusion Coefficient (0.4µM, + FtsN&Z, replicate Exp.4): 3.16E-04 | Diffusion Coefficient (0.4µM, + FtsN&Z, replicate Exp.5): 3.44E-03 | Diffusion Coefficient (0.4µM, + FtsN&Z, replicate Exp.6): 3.02E-04 | Diffusion Coefficient (0.4µM, + FtsN, Mean, n=5 (WT), 6 (R286W)): 0.0017 | Diffusion Coefficient (0.4µM, + FtsN, replicate Exp.1): 1.54E-03 | Diffusion Coefficient (0.4µM, + FtsN, replicate Exp.2): 2.97E-03 | Diffusion Coefficient (0.4µM, + FtsN, replicate Exp.3): 2.28E-03 | Diffusion Coefficient (0.4µM, + FtsN, replicate Exp.4): 1.80E-03 | Diffusion Coefficient (0.4µM, + FtsN, replicate Exp.5): 1.27E-04 | Diffusion Coefficient (0.4µM, + FtsZ, Mean, n=5 (WT), 8 (R286W)): 0.0009 | Diffusion Coefficient (0.4µM, + FtsZ, replicate Exp.1): 1.81E-03 | Diffusion Coefficient (0.4µM, + FtsZ, replicate Exp.2): 9.21E-04 | Diffusion Coefficient (0.4µM, + FtsZ, replicate Exp.3): 2.54E-06 | Diffusion Coefficient (0.4µM, + FtsZ, replicate Exp.4): 1.48E-07 | Diffusion Coefficient (0.4µM, + FtsZ, replicate Exp.5): 1.91E-03 | Diffusion Coefficient, mean (0.8 µM FtsA + N): 2.78E-04 µm2/s | Diffusion Coefficient, mean (0.8 µM FtsA + Z&N): 1.55E-03 µm2/s | Diffusion Coefficient, mean (0.8 µM FtsA + Z): 1.98E-04 µm2/s | Diffusion Coefficient (0.8µM FtsA alone, Mean, n=19 (WT), 8 (R286W)): 0.0008 | Diffusion Coefficient, mean (0.8 µM FtsA alone): 8.23E-04 µm2/s | Diffusion Coefficient (0.8µM FtsA alone, replicate Exp.1): 7.29E-03 | Diffusion Coefficient (0.8µM FtsA alone, replicate Exp.10): 4.22E-07 | Diffusion Coefficient (0.8µM FtsA alone, replicate Exp.11): 6.76E-05 | Diffusion Coefficient (0.8µM FtsA alone, replicate Exp.12): 1.41E-04 | Diffusion Coefficient (0.8µM FtsA alone, replicate Exp.13): 9.30E-04 | Diffusion Coefficient (0.8µM FtsA alone, replicate Exp.14): 4.15E-06 | Diffusion Coefficient (0.8µM FtsA alone, replicate Exp.15): 1.75E-03 | Diffusion Coefficient (0.8µM FtsA alone, replicate Exp.16): 1.00E-03 | Diffusion Coefficient (0.8µM FtsA alone, replicate Exp.17): 1.78E-04 | Diffusion Coefficient (0.8µM FtsA alone, replicate Exp.18): 3.36E-03 | Diffusion Coefficient (0.8µM FtsA alone, replicate Exp.19): 2.24E-04 | Diffusion Coefficient (0.8µM FtsA alone, replicate Exp.2): 2.12E-04 | Diffusion Coefficient (0.8µM FtsA alone, replicate Exp.3): 6.52E-08 | Diffusion Coefficient (0.8µM FtsA alone, replicate Exp.4): 1.44E-04 | Diffusion Coefficient (0.8µM FtsA alone, replicate Exp.5): 5.47E-08 | Diffusion Coefficient (0.8µM FtsA alone, replicate Exp.6): 4.93E-07 | Diffusion Coefficient (0.8µM FtsA alone, replicate Exp.7): 2.75E-04 | Diffusion Coefficient (0.8µM FtsA alone, replicate Exp.8): 6.96E-06 | Diffusion Coefficient (0.8µM FtsA alone, replicate Exp.9): 4.32E-05 | Diffusion Coefficient (0.8µM, + FtsN&Z, Mean, n=5 (WT), 4 (R286W)): 0.0015 | Diffusion Coefficient (0.8µM, + FtsN&Z, replicate Exp.1): 2.13E-03 | Diffusion Coefficient (0.8µM, + FtsN&Z, replicate Exp.2): 1.07E-06 | Diffusion Coefficient (0.8µM, + FtsN&Z, replicate Exp.3): 6.03E-04 | Diffusion Coefficient (0.8µM, + FtsN&Z, replicate Exp.4): 3.04E-03 | Diffusion Coefficient (0.8µM, + FtsN&Z, replicate Exp.5): 1.98E-03 | Diffusion Coefficient (0.8µM, + FtsN, Mean, n=4 (WT), 3 (R286W)): 0.000278 | Diffusion Coefficient (0.8µM, + FtsN, replicate Exp.1): 2.14E-05 | Diffusion Coefficient (0.8µM, + FtsN, replicate Exp.2): 6.16E-05 | Diffusion Coefficient (0.8µM, + FtsN, replicate Exp.3): 1.34E-04 | Diffusion Coefficient (0.8µM, + FtsN, replicate Exp.4): 8.93E-04 | Diffusion Coefficient (0.8µM, + FtsZ, Mean, n=3 (WT), 8 (R286W)): 0.0002 | Diffusion Coefficient (0.8µM, + FtsZ, replicate Exp.1): 7.26E-07 | Diffusion Coefficient (0.8µM, + FtsZ, replicate Exp.2): 4.83E-04 | Diffusion Coefficient (0.8µM, + FtsZ, replicate Exp.3): 1.10E-04 | Dcoeff (0.10 µM FtsA, replicate 1): 5.58E-02 µm2/s | Dcoeff (0.10 µM FtsA, replicate 2): 3.42E-03 µm2/s | Dcoeff (0.10 µM FtsA, replicate 3): 1.87E-02 µm2/s | Dcoeff (0.10 µM FtsA, replicate 4): 5.22E-02 µm2/s | Dcoeff (0.10 µM FtsA, summary value): 2.68E-02 µm2/s | Dcoeff (0.20 µM FtsA, summary value): 1.77E-02 µm2/s | Dcoeff (0.40 µM FtsA, summary value): 9.38E-03 µm2/s | Dcoeff (0.80 µM FtsA, summary value): 8.23E-04 µm2/s
